Laboratory results published in patent US6541503B2, “Substituted oxindole derivatives as protein tyrosine kinase and as protein serine/threonine kinase inhibitors” (SmithKline Beecham Corporation, priority 1997, dated 2003).
Where two headings read alike, the source gives them in different places.

Tests used:
CDK2 = CDK2 (Homo sapiens, UniProt P24941); test: Cyclin dependent protein kinase substrate phosphorylation assay, CDK2; format: biochemical
CDK1 = CDK1 (Homo sapiens, UniProt P06493); test: Cyclin dependent protein kinase substrate phosphorylation assay, CDK1; format: biochemical; settings: read-out: CDK1 IC50
Procedure: Cyclin dependent protein kinase assays utilized the peptides Biotin-aminohexyl-[…] and Biotin-aminohexyl-[…]-NH2 as phosphoryl group acceptors. CDK1 and CDK2 were both expressed utilizing a baculovirus expression system and were partially purified to comprise 20-80% of total protein, with no detectable competing reactions present. Typically, assays were performed by incubating either enzyme (0.2-10 nM), with and without inhibitor, one of the two peptide substrates ([…]), [γ-^32P]ATP ([…]), and 10-20 mM Mg^2+ for periods of time generally within the range 10-120 min. Reactions were terminated with 0.2-2 volumes of either 20% acetic acid or 50-100 mM EDTA buffered to pH 7 (substrate consumption<20%). The buffer employed in enzyme assays was either 30 mM HEPES 7.4 containing 0.15 M NaCl and 5% DMSO, the buffer 50 mM MOPS 7.0 containing 0.15 M NaCl and 5% DMSO, or the buffer 100 mM HEPES pH 7.5 containing 0.1 mg /mL BSA and 5% DMSO. Inhibitors were diluted in 100% DMSO prior to addition into the assay. Detection of peptide phosphorylation was accomplished by scintillation counting following either collection of peptide onto phosphocellulose filters (for reactions stopped with acetic acid), collection of peptide in wells of 96 well plates coated with Streptavidin (Pierce) (reactions were stopped with EDTA), or addition of Avidin coated Scintillant impregnated beads (Scintillation Proximity Assays from Amersham, reactions were stopped with EDTA).

[1] = tested on: human diploid fibroblasts (HDF-3); test: G1-S progression assay (BrdU incorporation); format: cell-based; settings: read-out: G1/S Chkpt IC50
Procedure: This assay is designed to determine the ability of compounds to inhibit progression of cells from G1 into S-phase. […] The protocol is as follows:
(1) Grow human diploid fibroblasts (HDF-3) in 100 mm tissue culture dish to confluency. (2) Plate 6-7×10^3 cells/well in a 96 well plate in 100 μl of DMEM. (3) After 16-17 h add various dilutions of test compounds (0.045-100 μM). Dilute compound in DMEM containing DMSO and add 100 μl to each well so that the DMSO conc. is 0.6-0.8% in 200 μl final volume. (4) Two h after addition of compound, add 20 ul of 100 μM BrdU (final conc. 10 μM) Make 100 μM solution in DMEM from 10 mM stock solution. (5) After 4 h, add 200 μl PBS to each well and remove the contents of the wells by inverting the plate and soaking on to the paper towel. Repeat the washing step three times, with 400 ul PBS each time. (6) Fix the cells and denature the DNA by adding 200 μl fixation/denaturation solution to each well for 30-40 min. (7) Remove the fixation/denaturation solution by tapping the plate on the paper towel and add 75 ul of anti BrdU peroxidase antibody to each well. (dilute the antibody to 0.1 U/mL from 15 U/mL stock in PBS containing 1% BSA, Fraction V). Incubate the plate O/N at 4° C. (8) Remove the antibody solution and wash wells four times with 400 μl of PBS. Let the wash solution stay for 3-4 min during each wash. (9) Drain the wells and add 100 μl of chemiluminiscence Elisa reagent (Prepare the reagent 15-20 min before use to bring it to rt by mixing 100 parts of reagent A with 1 part of reagent B). (10) Read the plate in a luminometer. Take 2-3 readings within 6-7 min. Perform the following controls:
Deoxybromouridine (BrdU), anti BrdU peroxidase antibodies, fixation/denaturation solution, chemiluminiscence reagent and BSA Fraction V, were obtained from Boehringer Mannheim. The 96-well white plate with clear bottom were purchased from Corning Costar Corporation. Dulbecco's Modified Eagle Medium containing high glucose, L-glutamine and pyridoxine HCl was obtained from GIBCO BRL.

[2] = tested on: RKO colon adenocarcinoma cells; test: FACS assay (cell death by flow cytometry), RKO; format: cell-based, human; settings: 50% cell death, 72 h, read-out: FACS RKO IC50
Procedure: (§1) These assays allow determination of both cell death and changes in cell cycle profile in cells following treatment of the compound. The assay is performend as follows:
(§2) 1. Cells are incubated in DMEM to which 10% FCS has been added in a humidified incubator at 37° C. and 5% by volume of CO2 in air. The cells are innoculated in 6-well plates at a density of 0.5-5×10^5 cells per well.
(§3) 2. The test compound is added in serial dilutions 24-36 h after plating in 0.5% DMSO. The plates are then incubated a further 72 h in the presence of the compound. During this time, cells in control cultures undergo at least three cell divisions.
(§4) 3. After incubation, the media is collected and cells are harvested by trypsinization. The cells and media are pooled and pelleted by centrifugation.
(§5) 4. The cell pellet is fixed in a final volume of 3 mL of 50% ice cold MeOH and incubated for a minimum of 30 min at −20° C.
(§6) 5. The cells are pelleted by centrifugation and resuspended in 0.5 mL PBS containing 1%FCS, […] Propidium Iodide (PI) and 5 mg/mL RNase A and incubated 30 min at 37° C. in the dark.
(§7) 6. The samples are analysed by flow cytometry using the relative incorporation of PI as a measure of DNA content of each cell. The % Dead cells is recorded as % of events with less than 2N DNA.
(§8) HDF are normal diploid fibroblast cells. RKO are colon adenocarcinoma cells and MES/SA are […].

[3] = tested on: MES/SA ovarian carcinoma cells; test: FACS assay (cell death by flow cytometry), MES/SA; format: cell-based; settings: 50% cell death, 72 h, read-out: FACS MES/SA IC50
Procedure: as §1, §2, §3, §4, §5, §6, §7, §8

[4] = tested on: RKO colon adenocarcinoma cells; test: MTT assay, RKO; format: cell-based, human; settings: 72 h, read-out: MTT RKO IC50
Procedure: (§9) Compounds are tested for their ability to inhibit cell proliferation and cell viability. The metabolic conversion of 3-(4,5-dimethylthiazol-2-yl)-2,5-diphenyltetrazolium bromide (MTT, Sigma #M2128) to a reduced form is a commonly used measure of cellular viability. Following is the procedure:
(§10) Cells are maintained in 75 cm^2 tissue culture flasks until ready for use. The cells are grown and plated for the assay in Dulbecco's modified Eagle's media (DMEM) containing 10% fetal bovine serum. For example, the following cell lines can be used: a) human foreskin fibroblasts (HFF); b) HT29 (human colon carcinoma cell line); c)MDA-MB-468 (human breast carcinoma cell line); d) RKO (human colon adenocarcinoma cell line); e) SW620 (human colon carcinoma cell line); f) A549 (human lung carcinoma cell line); and g) MIA PACA (human pancreatic carcinoma cell line). Cells are maintained at 37° C. in 10% CO2, 90% humidified air. Cells are plated in 96-well tissue culture plates at the densities listed below. 100 μL of cell suspension is added to each well of the 96-well plate except the top row of the plate which contains no cells and serves as a reference for the spectrophotometer.
(§11) Cells are incubated overnight in DMEM containing 10% fetal bovine serum at 37° C. in 10% CO2, 90% humidified air prior to dosing. […] Compounds with solubilities of less than 30 μM are dosed at the highest soluble concentration. Stock solutions of compounds are made in 100% dimethyl sulfoxide (DMSO). Stock solutions are diluted in DMEM containing 100 μg/ml gentamicin and 0.3 to 0.6% DMSO at the twice the highest concentration to be placed on the cells. If compounds have been dissolved in DMSO the final concentration of DMSO on the cells is kept below 0.3%. Three-fold serial dilutions are performed on each compound to prepare 10 concentrations of the compound for dosing. 100 μl of diluted compound is added to the 100 μl of media currently on the dish. For each concentration of compound, 2-4 replicate wells are prepared.
(§12) Cells are returned to incubator and allowed to proliferate in the presence of compound for 72 h before addition of MTT. MTT is prepared in phosphate buffered saline (Irvine Scientific #9240) at a concentration of 2 mg/ml. 50 μl per well of MTT solution is added to the 200 μl of media to yield a final concentration of 0.4 mg/ml and plates are returned to the incubator for 4 h. After 4 h incubation the media, compound and MTT mixture is aspirated from the plates and 100 μl of 100% DMSO is added to each well in addition to 25 μl of Sorenson's Buffer (0.1M glycine, 0.1M NaCl, pH 10.5). Quantitation of metabolic reduction of MTT in each plate is performed by reading optical density at 570 nm wavelength on a Molecular Devices UVmax microplate reader. Growth inhibition curves and 50% inhibitory concentrations are determined using Microsoft Excel.
as §8

MDA MB468 = test: MTT assay, MDA MB468; format: cell-based, human; settings: read-out: MTT MDA MB468 IC50
Procedure: as §9, §10, §11, §12

[5] = tested on: HDF normal diploid fibroblast cells; test: FACS assay (cell death by flow cytometry), HDF; format: cell-based, human; settings: 50% cell death, 72 h; read-out: FACS HDF IC50
Procedure: as §1, §2, §3, §4, §5, §6, §7, §8

[6] = tested on: HDF normal diploid fibroblast cells; test: MTT assay, HDF; format: cell-based, human; settings: 72 h; read-out: MTT HDF IC50
Procedure: as §9
as §10, with “100 μL of cell suspension is added to each well of the 96-well plate except the top row of the plate which contains no cells and serves as a reference for the spectrophotometer.” left out
Cells are returned to incubator and allowed to proliferate in the presence of compound for 72 h before addition of MTT. […] Quantitation of metabolic reduction of MTT in each plate is performed by reading optical density at 570 nm wavelength on a Molecular Devices UVmax microplate reader. Growth inhibition curves and 50% inhibitory concentrations are determined using Microsoft Excel. […]

Sequence of CDK1 (P06493 whole entry, species assumed): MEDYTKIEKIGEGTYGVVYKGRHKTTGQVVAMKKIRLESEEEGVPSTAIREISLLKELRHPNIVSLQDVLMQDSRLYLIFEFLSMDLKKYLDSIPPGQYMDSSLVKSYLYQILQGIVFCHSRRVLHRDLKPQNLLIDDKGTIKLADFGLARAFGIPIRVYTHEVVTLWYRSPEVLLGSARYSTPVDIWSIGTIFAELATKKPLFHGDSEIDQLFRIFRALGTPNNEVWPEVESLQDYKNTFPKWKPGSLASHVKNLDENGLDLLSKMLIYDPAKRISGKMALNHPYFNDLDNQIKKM
Sequence of CDK1 (P14635 whole entry partner, species assumed): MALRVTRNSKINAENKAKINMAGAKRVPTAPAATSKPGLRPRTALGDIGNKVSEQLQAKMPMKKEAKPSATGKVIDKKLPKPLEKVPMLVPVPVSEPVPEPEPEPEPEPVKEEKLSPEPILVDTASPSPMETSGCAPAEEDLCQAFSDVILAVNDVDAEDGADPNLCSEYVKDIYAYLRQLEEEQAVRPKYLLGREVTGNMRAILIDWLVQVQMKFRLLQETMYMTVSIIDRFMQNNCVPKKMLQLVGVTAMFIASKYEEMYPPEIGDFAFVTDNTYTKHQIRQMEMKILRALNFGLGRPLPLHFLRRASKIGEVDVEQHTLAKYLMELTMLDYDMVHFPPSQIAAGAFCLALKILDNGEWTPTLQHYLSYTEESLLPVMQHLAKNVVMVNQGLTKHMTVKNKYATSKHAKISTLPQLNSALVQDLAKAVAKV

Structure (SMILES) | IC50 (CDK1) [µM] | IC50 (CDK2) [µM] | IC50 ([2]; Homo sapiens) [µM] | IC50 ([4]; Homo sapiens) [µM] | IC50 (MDA MB468; Homo sapiens, MDA-MB-468, 72 h) [µM] | further results
CCC(C)Cc1cccc2c1C(=NNc1ccc(S(N)(=O)=O)cc1)C(=O)N2 (centres unmarked) [Example 11, 4-{N′-[4-(2-methylbutyl)-2-oxo-1,2-dihydro-indol-3-ylidene]-hydrazino}-benzenesulfonamide] | 0.011 to 0.05 | 0.001 to 0.01 | 1.1 to 5 | – | – | IC50 ([1]; Homo sapiens, Fibroblast): 1.1 to 5 µM
CN(C)S(=O)(=O)c1ccc(NC=C2C(=O)Nc3ccc(-c4cnco4)cc32)cc1 [Example 35, N,N-Dimethyl-4-[(5-oxazol-5-yl-2-oxo-1,2-dihydro-indol-3-ylidenemethyl)-amino]-benzenesulfonamide] | 0.011 to 0.05 | 0.001 to 0.01 | 1.1 to 5 | 1.1 to 5 | > 5 | IC50 ([3]; Homo sapiens, MES-SA): > 5 µM
NS(=O)(=O)c1ccc(NN=C2C(=O)Nc3ccc(-c4cnco4)cc32)cc1 [Example 36, 4-[1-(5-Oxazol-5-yl-2-oxo-1,2-dihydro-indol-3-ylidene)-hydrazino]-benzenesulfonamide] | – | – | – | – | – | IC50 [1]: 0.6 to 1 µM; IC50 [5]: > 5 µM; IC50 [2]: 0.6 to 1 µM; IC50 [3]: 0.1 to 0.5 µM; IC50 [6]: 1.1 to 5 µM; IC50 [4]: 0.6 to 1 µM; IC50 (MDA MB468; 72 h): 0.6 to 1 µM
CC(C)COC(=O)c1ccc2c(c1)C(=CNc1ccc(S(N)(=O)=O)cc1)C(=O)N2 [Example 103, 2-Oxo-3-(4-sulfamoyl-phenylamino-methylene)-2,3dihydro-1H-indole-5-carboxylic acid isobutyl ester] | 0.011 to 0.05 | 0.001 to 0.01 | – | 1.1 to 5 | 1.1 to 5 | –

Continued, in another order:

IC50 (CDK1) [µM] | Structure (SMILES) | IC50 (CDK2) [µM] | IC50 ([2]; Homo sapiens) [µM] | IC50 ([4]; Homo sapiens) [µM] | IC50 (MDA MB468; Homo sapiens, MDA-MB-468, 72 h) [µM] | further results
0.011 to 0.05 | COC(=O)c1ccc2c(c1)/C(=C/Nc1ccc(S(N)(=O)=O)cc1)C(=O)N2 [Example 27, 2-Oxo-3-(4-sulfamoyl-phenylamino-methylene)-2,3-dihydro-1H-indole-5-carboxylic acid methyl ester] | – | – | – | – | –
0.051 to 0.1 | O=C1Nc2ccc3ncsc3c2C1=CNc1ccc2nn[nH]c2c1 [Example 101, 8-(3H-Benzotriazol-5-ylaminomethylene)-6,8-dihydro-1-thia-3,6-diaza-as-indacene-7-one] | 0.011 to 0.05 | > 5 | – | 1.1 to 5 | –
